Measured values from EP3981864A1, “DETERGENT COMPOSITION” (priority 2020, dated 2022).

Target: T1, Oryza sativa αDOX (SEQ ID NO: 1), fatty acid alpha-dioxygenase, Q9M5J1, N-terminal His-tag variant SEQ ID NO: 249 (Oryza sativa subsp. japonica, UniProt Q2QRV3)
T1 construct: made in house; host or cells: Escherichia coli BL21 (DE3), pET30a
T1 sequence (Q2QRV3 1-618): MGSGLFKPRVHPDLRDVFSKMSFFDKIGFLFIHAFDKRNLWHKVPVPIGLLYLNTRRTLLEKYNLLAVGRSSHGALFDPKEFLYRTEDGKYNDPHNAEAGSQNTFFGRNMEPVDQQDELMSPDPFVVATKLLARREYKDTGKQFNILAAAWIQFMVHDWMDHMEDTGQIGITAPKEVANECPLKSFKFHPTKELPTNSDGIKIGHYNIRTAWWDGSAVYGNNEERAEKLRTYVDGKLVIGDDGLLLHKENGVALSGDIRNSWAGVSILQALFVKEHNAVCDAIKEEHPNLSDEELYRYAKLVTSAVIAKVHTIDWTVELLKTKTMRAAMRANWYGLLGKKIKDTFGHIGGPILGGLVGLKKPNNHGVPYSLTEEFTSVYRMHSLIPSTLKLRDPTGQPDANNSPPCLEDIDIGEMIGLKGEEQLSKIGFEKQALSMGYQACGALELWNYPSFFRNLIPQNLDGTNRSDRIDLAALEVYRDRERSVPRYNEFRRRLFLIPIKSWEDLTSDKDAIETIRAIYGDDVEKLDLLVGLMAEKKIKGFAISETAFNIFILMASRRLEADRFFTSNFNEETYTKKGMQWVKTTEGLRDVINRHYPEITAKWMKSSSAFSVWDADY
Test: Alpha-dioxygenase activity assay (oxygen consumption, TON)
Type: biochemical
Details: fatty acid 100 µM, enzyme 6 ppm, 50 mM HEPES pH 9.0, 37°C; initial rate of oxygen consumption / enzyme concentration
Text: Oryza sativa αDOX (SEQ ID NO: 1) is a fatty acid alpha-dioxygenase that converts fatty acids into the corresponding 2-hydroperoxy fatty acids and is included as an example of the present invention. A codon optimized gene (SEQ ID NO: 248) encoding for an alpha-dioxygenase variant (SEQ ID NO: 249), including an N-terminal amino acid sequence containing a His-tag was designed and synthesized by Genscript. After gene synthesis, the protein was expressed and purified. In brief, the complete synthetic gene sequence was subcloned into a pET30a vector using the NdeI/HindIII cloning sites. For heterologous expression, Escherichia coli BL21 (DE3) cells were transformed with the recombinant plasmid and a single colony was inoculated into LB medium containing kanamycin (50 mg/L). A pre-starter culture was then inoculated into flasks containing Magic Media (Thermo Fisher, Catalog # K6803) supplemented with kanamycin (50 mg/L) and incubated at 16 °C for 72 h. At an OD600nm = 0.5 - 1.0, 5-aminolevulinic acid (final concentration 0.5 mM) was added. Cells were harvested by centrifugation at 5000 rpm and 4°C and the pellet was lysed using a bacterial cell lysis buffer (B-PER - Themo Fisher, Waltham, MA). After centrifugation, the supernatant was collected, and the protein was purified by one-step purification using HisPur™ Ni-NTA Spin Columns (Thermo Scientific, Catalog # 88226) and standard protocols known in the art. The protein was concentrated using a 10 kDa MW cutoff Amicon Ultra centrifugal filter unit (Millipore Sigma, Catalog# UFC901024), followed by desalting using a disposable PD-10 desalting column (GE Healthcare Life Sciences, Catalog# 17085101) and a buffer containing 50 mM Tris-HCl, 500 mM NaCl, and 10% Glycerol at pH 8.0. […]
Reactions with alpha-dioxygenases were performed as follows. […] The reaction was incubated for up to 10 minutes at 37°C with 200 rpm agitation and the conversion was monitored using an oxygen sensor. The TON (in s-1) were calculated as the ratio between the initial rate of oxygen consumption (in µM/s) and the concentration of enzyme (in µM). […]

Question: For CCCCCCCC/C=C\CCCCCCCC(=O)O [Oleic Acid], which “Oleic Acid, TON” value is on record?
Answer: 5.54 s⁻¹

Question: With CCCCCCCCCCCCCCCC(=O)O [Palmitic Acid] as the compound, how does the “Palmitic Acid, TON” value read?
Answer: 20.58 s⁻¹

Question: With CCCCCCCCCCCCCCCCCC(=O)O [Stearic Acid] as the compound, how does the “Stearic Acid, TON” value read?
Answer: 8.02 s⁻¹
